According to patent US20240050428A1 (Cullgen (Shanghai), Inc., priority 2020, published 2024):
Where two headings read alike, the source gives them in different places.

Assays:
MOLM-13 cells = experiment: Cell viability assay (CellTiter-Glo) in MOLM-13 cells, alone or with gilteritinib; format: cell-based; details: Homo sapiens, MOLM-13, 72 h, MOLM-13 cells, CellTiter-Glo
MV4;11 cells = experiment: Cell viability assay (CellTiter-Glo) in MV4;11 cells, alone or with gilteritinib; format: cell-based; details: Homo sapiens, MV4-11, 72 h, MV4;11 cells, CellTiter-Glo, read-out: MV4
[1] = compound alone (without gilteritinib), three days, read-out: MOLM-13 IC50
[2] = with gilteritinib 20 nM, three days, read-out: MOLM-13 IC50 gilteritinib
[3] = compound alone (without gilteritinib), three days, 11 IC50
[4] = with gilteritinib 10 nM, three days, 11 IC50 gilteritinib
[5] = with 20 nM gilteritinib, 3 days, read-out: MOLM-13 IC50 gilteritinib
[6] = without gilteritinib, 3 days, read-out: MOLM-13 IC50
[7] = without gilteritinib, 3 days, 11 IC50
[8] = with 10 nM gilteritinib, 3 days, 11 IC50 gilteritinib

Row | Compound | IC50 (MOLM-13 cells; [1]) | IC50 (MOLM-13 cells; [2]) | IC50 (MV4;11 cells; [3]) | IC50 (MV4;11 cells; [4]) | IC50 (MOLM-13 cells; [5]) | IC50 (MOLM-13 cells; [6]) | IC50 (MV4;11 cells; [7]) | IC50 (MV4;11 cells; [8])
1 | O=C1CCC(N2C(=O)c3ccc(NCCCCCC(=O)c4ccc(-n5cccn5)cc4)cc3C2=O)C(=O)N1 (stereo not shown) [GS-061, 5-((6-(4-(1H-Pyrazol-1-yl)phenyl)-6-oxohexyl)amino)-2-(2,6-dioxopiperidin-3-yl)isoindoline-1,3-dione] | > 1000 nM | 100 to 1000 nM | > 1000 nM | 100 to 1000 nM |  |  |  | 
2 | O=C1CCC(N2C(=O)c3ccc(NCCCCCC(=O)N4CC(n5cc(-c6cnc7cccc(Br)c7n6)cn5)C4)cc3C2=O)C(=O)N1 (stereo not shown) [GS-062, 5-((6-(3-(4-(8-Bromoquinoxalin-2-yl)-1H-pyrazol-1-yl)azetidin-1-yl)-6-oxohexyl)amino)-2-(2,6-dioxopiperidin-3-yl)isoindoline-1,3-dione] |  |  |  |  | 72 nM | > 10000 nM | 9410 nM | 1920 nM
3 | O=C1CCC(N2C(=O)c3ccc(NCCCCCC(=O)N4CCC(n5cc(N6CCC6)cn5)CC4)cc3C2=O)C(=O)N1 (stereo not shown) [GS-063, 5-((6-(4-(4-(Azetidin-1-yl)-1H-pyrazol-1-yl)piperidin-1-yl)-6-oxohexyl)amino)-2-(2,6-dioxopiperidin-3-yl)isoindoline-1,3-dione] |  |  |  |  | 3680 nM | > 10000 nM | > 10000 nM | 8550 nM
4 | O=C1CCC(N2C(=O)c3ccc(NCCCCCC(=O)N4CCC(n5cc(C6CC6)cn5)CC4)cc3C2=O)C(=O)N1 (stereo not shown) [GS-064, 5-((6-(4-(4-Cyclopropyl-1H-pyrazol-1-yl)piperidin-1-yl)-6-oxohexyl)amino)-2-(2,6-dioxopiperidin-3-yl)isoindoline-1,3-dione] |  |  |  |  | 600 nM | 520 nM | 349 nM | 27 nM
5 | Cc1cccc(-c2ccn([C@H]3C[C@H](CNc4ccc5c(c4)C(=O)N(C4CCC(=O)NC4=O)C5=O)C3)n2)n1 (stereo partly drawn) [GS-065, 2-(2,6-Dioxopiperidin-3-yl)-5-(((trans-3-(3-(6-methylpyridin-2-yl)-1H-pyrazol-1-yl)cyclobutyl)methyl)amino)isoindoline-1,3-dione] | > 1000 nM | > 1000 nM | > 1000 nM | > 1000 nM |  |  |  | 
6 | O=C1CCC(N2C(=O)c3ccc(NC[C@H]4C[C@H](n5cc(-c6cnc7ccc(CN8CCOCC8)cc7n6)c(C6CC6)n5)C4)cc3C2=O)C(=O)N1 (stereo partly drawn) [GS-067, 5-(((trans-3-(3-Cyclopropyl-4-(7-(morpholinomethyl)quinoxalin-2-yl)-1H-pyrazol-1-yl)cyclobutyl)methyl)amino)-2-(2,6-dioxopiperidin-3-yl)isoindoline-1,3-dione] | > 1000 nM | 10 to 100 nM | 10 to 100 nM | 10 to 100 nM |  |  |  | 
7 | O=C1CCC(N2C(=O)c3ccc(NC[C@H]4C[C@H](n5cc(-c6cnc7ccc(CN8CCNCC8)cc7n6)c(C6CC6)n5)C4)cc3C2=O)C(=O)N1 (stereo partly drawn) [GS-068, 5-(((trans-3-(3-cyclopropyl-4-(7-(piperazin-1-ylmethyl)quinoxalin-2-yl)-1H-pyrazol-1-yl)cyclobutyl)methyl)amino)-2-(2,6-dioxopiperidin-3-yl)isoindoline-1,3-dione] | > 1000 nM | 10 to 100 nM | 10 to 100 nM | < 10 nM |  |  |  | 
8 | O=C1CCC(N2C(=O)c3ccc(NCCC[C@H]4C[C@H](n5cc(-c6ncccc6Cl)c(C6CC6)n5)C4)cc3C2=O)C(=O)N1 (stereo partly drawn) [GS-070, 5-((3-(trans-3-(4-(3-chloropyridin-2-yl)-3-cyclopropyl-1H-pyrazol-1-yl)cyclobutyl)propyl)amino)-2-(2,6-dioxopiperidin-3-yl)isoindoline-1,3-dione] | 100 to 1000 nM | < 10 nM | 10 to 100 nM | < 10 nM |  |  |  | 
9 | Cc1cccc(-c2cn([C@H]3C[C@H](CNc4ccc5c(c4)C(=O)N(C4CCC(=O)NC4=O)C5=O)C3)nc2C2CCOCC2)n1 (stereo partly drawn) [GS-071, 2-(2,6-Dioxopiperidin-3-yl)-5-(((trans-3-(4-(6-methylpyridin-2-yl)-3-(tetrahydro-2H-pyran-4-yl)-1H-pyrazol-1-yl)cyclobutyl)methyl)amino)isoindoline-1,3-dione] | > 1000 nM | 10 to 100 nM | > 1000 nM | 10 to 100 nM |  |  |  | 
10 | O=C1CCC(N2Cc3cc(Nc4ccnc(Nc5ccc6c(c5)CC(N5CCC(n7cc(-c8cnc9cccc(Br)c9n8)cn7)CC5)C6)n4)ccc3C2=O)C(=O)N1 (stereo not shown) [GS-072, 3-(5-((2-((2-(4-(4-(8-Bromoquinoxalin-2-yl)-1H-pyrazol-1-yl)piperidin-1-yl)-2,3-dihydro-1H-inden-5-yl)amino)pyrimidin-4-yl)amino)-1-oxoisoindolin-2-yl)piperidine-2,6-dione] | > 1000 nM | 100 to 1000 nM | > 1000 nM | 100 to 1000 nM |  |  |  | 

The next lines start with the values.

Row | IC50 (MOLM-13 cells; [1]) | IC50 (MOLM-13 cells; [2]) | IC50 (MV4;11 cells; [3]) | IC50 (MV4;11 cells; [4]) | IC50 (MOLM-13 cells; [5]) | IC50 (MOLM-13 cells; [6]) | IC50 (MV4;11 cells; [7]) | IC50 (MV4;11 cells; [8]) | Compound
11 | 100 to 1000 nM | < 10 nM | 10 to 100 nM | < 10 nM |  |  |  |  | O=C1CCC(N2C(=O)c3ccc(NCCCCCC(=O)N4CCC(n5cc(-c6ccccn6)cn5)CC4)cc3C2=O)C(=O)N1 (stereo not shown) [GS-053, 2-(2,6-Dioxopiperidin-3-yl)-5-((6-oxo-6-(4-(4-(pyridin-2-yl)-1H-pyrazol-1-yl)piperidin-1-yl)hexyl)amino)isoindoline-1,3-dione]
12 | 10 to 100 nM | < 10 nM | < 10 nM | < 10 nM |  |  |  |  | O=C(CCC(F)(F)C(=O)N1CCC(n2cc(-c3cnc4cccc(Br)c4n3)cn2)CC1)NCc1ccc2c(c1)CN(C1CCC(=O)NC1=O)C2=O (stereo not shown) [GS-054, 5-(4-(4-(8-Bromoquinoxalin-2-yl)-1H-pyrazol-1-yl)piperidin-1-yl)-N-((2-(2,6-dioxopiperidin-3-yl)-1-oxoisoindolin-5-yl)methyl)-4,4-difluoro-5-oxopentanamide]
13 | 100 to 1000 nM | > 1000 nM | > 1000 nM | 100 to 1000 nM |  |  |  |  | CN(Cc1ccc2c(c1)CN(C1CCC(=O)NC1=O)C2=O)C(=O)CCCC(=O)N1CCC(n2cc(-c3cnc4cccc(Br)c4n3)cn2)CC1 (stereo not shown) [GS-058, 5-(4-(4-(8-Bromoquinoxalin-2-yl)-1H-pyrazol-1-yl)piperidin-1-yl)-N-((2-(2,6-dioxopiperidin-3-yl)-1-oxoisoindolin-5-yl)methyl)-N-methyl-5-oxopentanamide]
14 | < 10 nM | < 10 nM | < 10 nM | < 10 nM | 0.06 nM | 3.7 nM | < 1 nM |  | O=C1CCC(N2C(=O)c3ccc(NCCCCCC(=O)N4CCC(c5cnc6cccc(Br)c6n5)CC4)cc3C2=O)C(=O)N1 (stereo not shown) [GS-060, 5-((6-(4-(8-Bromoquinoxalin-2-yl)piperidin-1-yl)-6-oxohexyl)amino)-2-(2,6-dioxopiperidin-3-yl)isoindoline-1,3-dione]
15 | 10 to 100 nM | < 10 nM | 10 to 100 nM | < 10 nM |  |  |  |  | O=C1CCC(N2C(=O)c3ccc(NC[C@H]4C[C@H](n5cc(-c6cnc7cc(N8CCOCC8)ccc7n6)c(C6CC6)n5)C4)cc3C2=O)C(=O)N1 (stereo partly drawn) [GS-066, 5-(((trans-3-(3-Cyclopropyl-4-(6-morpholinoquinoxalin-2-yl)-1H-pyrazol-1-yl)cyclobutyl)methyl)amino)-2-(2,6-dioxopiperidin-3-yl)isoindoline-1,3-dione]
16 | 100 to 1000 nM | 10 to 100 nM | 10 to 100 nM | < 10 nM |  |  |  |  | CCc1cccc(-c2cn([C@H]3C[C@H](CNc4ccc5c(c4)C(=O)N(C4CCC(=O)NC4=O)C5=O)C3)nc2C2CC2)n1 (stereo partly drawn) [GS-069, 5-(((trans-3-(3-Cyclopropyl-4-(6-ethylpyridin-2-yl)-1H-pyrazol-1-yl)cyclobutyl)methyl)amino)-2-(2,6-dioxopiperidin-3-yl)isoindoline-1,3-dione]
